According to ChEMBL document CHEMBL1201862, “PubChem BioAssay data set” (2004):
The source made the active and inactive calls.

Key:
[1] = molecular target: T1, Kappa-type opioid receptor (Homo sapiens, UniProt P41145); assay type: functional
[2] = molecular target: T2, Delta-type opioid receptor (Homo sapiens, UniProt P41143); test: HTS Image-Based Screen for Agonists of the DOR Receptor. [Related pubchem assays (depositor defined):AID1777, AID1786, AID2133]; assay type: functional
[3] = molecular target: T3, Mu-type opioid receptor (Homo sapiens, UniProt P35372); test: HTS Image-Based Screen for Agonists of the MOR Receptor. [Related pubchem assays (depositor defined):AID1777, AID1785, AID1786, AID2133]; assay type: functional
[4] = molecular target: T1, Kappa-type opioid receptor; assay type: functional; remark: listed apart in the source
[5] = molecular target: T2, Delta-type opioid receptor; test: HTS Image-Based Screen for Antagonists of the DOR Receptor. [Related pubchem assays (depositor defined):AID1777, AID1785, AID1786, AID2133]; assay type: functional
[6] = molecular target: Beta-galactosidase (Escherichia coli, UniProt Q8VNN2); assay type: functional
[7] = cytotoxicity in HMLE control line with eGFP shRNA, dose response, counter-screen for HMLE_sh_ECad selective toxicity project, cell-based, HMLE_sh_eGFP, luminescence (AID 463074); assay type: functional, Homo sapiens;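 further: HMLE human mammary epithelial cells expressing control shRNA against eGFP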
[8] = molecular target: T4, Heat shock factor protein 1 (Mus musculus, UniProt P38532); test: inhibition of MG132-induced HSE-luciferase signal, confirmation, cell-based, NIH3T3, luminescence, dose retest (AID 2382); assay type: functional;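 further: NIH3T3 fibroblasts with HSF1-driven luciferase reporter stressed by proteasome inhibitor MG132; luminescence from HSF1-driven luciferase expression after 8 hours of MG132 stress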
T4 sequence (P38532 whole entry): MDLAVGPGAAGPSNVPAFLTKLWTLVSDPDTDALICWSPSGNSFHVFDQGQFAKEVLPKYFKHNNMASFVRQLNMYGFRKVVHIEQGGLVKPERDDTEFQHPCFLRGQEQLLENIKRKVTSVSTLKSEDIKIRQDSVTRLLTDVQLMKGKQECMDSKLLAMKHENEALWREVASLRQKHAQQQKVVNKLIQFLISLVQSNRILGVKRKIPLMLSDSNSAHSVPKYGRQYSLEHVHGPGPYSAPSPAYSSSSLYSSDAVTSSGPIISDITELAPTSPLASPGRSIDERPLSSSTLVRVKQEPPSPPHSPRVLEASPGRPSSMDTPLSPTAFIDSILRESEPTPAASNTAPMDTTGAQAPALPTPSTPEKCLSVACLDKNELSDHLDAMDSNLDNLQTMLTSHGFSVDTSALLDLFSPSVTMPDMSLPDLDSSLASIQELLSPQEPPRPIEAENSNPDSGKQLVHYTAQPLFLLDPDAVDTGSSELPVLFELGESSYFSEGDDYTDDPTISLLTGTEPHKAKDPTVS

[9] = CRF-BP/CRF-R2 complex antagonists, dose response, cell-based, uHTS hits, 384-well (AID 651639); assay type: functional, Homo sapiens; conditions: read-out: IC50_Mean
[10] = molecular target: T5, Corticotropin-releasing factor receptor 2/Corticotropin-releasing factor-binding protein (Homo sapiens, UniProt P24387+Q13324); test: Dose Response confirmation of uHTS hits for small molecule antagonists of the CRF-binding protein and CRF-R2 receptor complex.; assay type: functional; conditions: read-out: IC50_Mean
T5 sequence (Q13324 whole entry): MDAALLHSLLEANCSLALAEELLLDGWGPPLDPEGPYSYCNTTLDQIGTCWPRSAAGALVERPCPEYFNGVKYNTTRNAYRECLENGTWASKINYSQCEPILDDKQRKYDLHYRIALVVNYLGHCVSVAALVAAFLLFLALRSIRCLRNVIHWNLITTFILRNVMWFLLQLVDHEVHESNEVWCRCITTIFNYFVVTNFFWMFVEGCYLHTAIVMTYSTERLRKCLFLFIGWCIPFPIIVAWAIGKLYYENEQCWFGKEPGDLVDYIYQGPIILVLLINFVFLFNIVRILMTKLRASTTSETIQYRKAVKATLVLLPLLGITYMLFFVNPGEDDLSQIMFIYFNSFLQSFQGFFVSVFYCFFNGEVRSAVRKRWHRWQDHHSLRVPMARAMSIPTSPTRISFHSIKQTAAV
T5 sequence (P24387 whole entry): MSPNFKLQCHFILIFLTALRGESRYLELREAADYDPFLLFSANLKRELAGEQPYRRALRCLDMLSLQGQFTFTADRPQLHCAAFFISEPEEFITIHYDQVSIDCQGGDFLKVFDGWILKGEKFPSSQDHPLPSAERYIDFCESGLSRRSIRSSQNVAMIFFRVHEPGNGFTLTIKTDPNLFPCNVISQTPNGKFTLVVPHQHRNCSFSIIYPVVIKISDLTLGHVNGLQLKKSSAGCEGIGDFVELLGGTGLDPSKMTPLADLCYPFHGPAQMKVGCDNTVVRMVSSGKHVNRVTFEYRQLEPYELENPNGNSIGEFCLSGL

[11] = Luminescence Cell-Based Dose Retest to Confirm Inhibitors of Cancer Stem Cells. [Related pubchem assays (depositor defined):AID2717, AID2721]; assay type: functional; conditions: Homo sapiens
[12] = molecular target: T5, Corticotropin-releasing factor receptor 2/Corticotropin-releasing factor-binding protein; test: activators of CRF receptor 2 with binding protein – uHTS hits, confirmation (AID 602473); assay type: functional; conditions: read-out: EC50_Mean
[13] = inhibitors of Bluetongue virus cytopathic effect, confirmation, arbovirus, BSR cells (AID 1250); assay type: functional;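 further: protection from viral cytopathic effect measured as cell viability by ATP luminescence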
[14] = molecular target: UDP-galactopyranose mutase (Mycobacterium tuberculosis, UniProt P9WIQ1); test: Inhibitors of Mycobacterium tuberculosis UDP-galactopyranose mutase (UGM) enzyme Measured in Biochemical System Using Plate Reader - 2105-02_Inhibitor_Dose_CherryPick_Activity. [Related pubchem assays (depositor defined):AID504439]
[15] = molecular target: Nucleotide-binding oligomerization domain-containing protein 1 (Homo sapiens, UniProt Q9Y239); test: NOD1 signaling inhibitors, SAR follow-up, revised (AID 2333); assay type: functional
[16] = tested on: HEK293; test: cells; assay type: functional, cell-based; conditions: Homo sapiens
[17] = tested on: HEK293; test: NOD2 signaling inhibitors in MDP-stimulated cells, cell-based, uHTS, luminescence (AID 2001); assay type: functional; conditions: Homo sapiens
[18] = molecular target: Tumor necrosis factor (Homo sapiens, UniProt P01375); test: TNFa-triggered NF-kB activation inhibitors, SAR follow-up, cell-based, revised (AID 2337); assay type: functional
[19] = tested on: HEK293; test: cells; conditions: Homo sapiens
[20] = molecular target: Nucleotide-binding oligomerization domain-containing protein 2 (Homo sapiens, UniProt Q9HC29); test: NOD2 signaling inhibitors, cell-based, luminescence, uHTS, HEK293 (AID 1566); assay type: functional
[21] = tested on: HEK293; test: NOD1 signaling inhibitors, primary screen, cell-based, luminescence, uHTS (AID 1578); assay type: functional; conditions: Homo sapiens
[22] = tested on: HEK293; test: cells; assay type: functional, cell-based; conditions: Homo sapiens; remark: listed apart in the source
[23] = tested on: HEK293; test: cells; assay type: functional, cell-based; conditions: Homo sapiens; remark: listed apart in the source
[24] = molecular target: T2, Delta-type opioid receptor; test: SAR Analysis of Agonists of the DOR Receptor using an Image-Based Assay - Set 2. [Related pubchem assays (depositor defined):AID1777, AID1785, AID1786, AID1966, AID2133, AID2136, AID2284, AID2285, AID2370]; assay type: functional
[25] = molecular target: T2, Delta-type opioid receptor; test: SAR Analysis of Antagonists of the DOR Receptor using an Image-Based Assay - Set 2. [Related pubchem assays (depositor defined):AID1777, AID1785, AID1786, AID1966, AID2133, AID2136, AID2284, AID2285, AID2357]; assay type: functional
[26] = molecular target: T3, Mu-type opioid receptor; test: SAR Analysis of Antagonists of the MOR Receptor using an Image-Based Assay - Set 2. [Related pubchem assays (depositor defined):AID1777, AID1785, AID1786, AID1966, AID2133, AID2136, AID2284, AID2285, AID2420]; assay type: functional
[27] = molecular target: T3, Mu-type opioid receptor; test: SAR Analysis of Agonists of the MOR Receptor using an Image-Based Assay - Set 2. [Related pubchem assays (depositor defined):AID1777, AID1785, AID1786, AID1966, AID2133, AID2136, AID2284, AID2285, AID2352]; assay type: functional
[28] = molecular target: T6, Intestinal-type alkaline phosphatase (Homo sapiens, UniProt P09923); test: human intestinal alkaline phosphatase activators, dose response, biochemical, luminescence, uHTS hits (AID 463120); assay type: functional
[29] = molecular target: Intestinal-type alkaline phosphatase (Mus musculus, UniProt P24822); test: PubChem AID 488874; assay type: functional
[30] = molecular target: T7, Alkaline phosphatase, tissue-nonspecific isozyme (Homo sapiens, UniProt P05186); test: TNAP enzyme activators, dose response, selectivity assay for human IAP activator project, biochemical, TNAP isozyme, human IAP uHTS hits (AID 488886); assay type: functional;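 further: potency of compounds raising TNAP activity as a selectivity check on IAP activators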
T7 sequence (P05186 whole entry): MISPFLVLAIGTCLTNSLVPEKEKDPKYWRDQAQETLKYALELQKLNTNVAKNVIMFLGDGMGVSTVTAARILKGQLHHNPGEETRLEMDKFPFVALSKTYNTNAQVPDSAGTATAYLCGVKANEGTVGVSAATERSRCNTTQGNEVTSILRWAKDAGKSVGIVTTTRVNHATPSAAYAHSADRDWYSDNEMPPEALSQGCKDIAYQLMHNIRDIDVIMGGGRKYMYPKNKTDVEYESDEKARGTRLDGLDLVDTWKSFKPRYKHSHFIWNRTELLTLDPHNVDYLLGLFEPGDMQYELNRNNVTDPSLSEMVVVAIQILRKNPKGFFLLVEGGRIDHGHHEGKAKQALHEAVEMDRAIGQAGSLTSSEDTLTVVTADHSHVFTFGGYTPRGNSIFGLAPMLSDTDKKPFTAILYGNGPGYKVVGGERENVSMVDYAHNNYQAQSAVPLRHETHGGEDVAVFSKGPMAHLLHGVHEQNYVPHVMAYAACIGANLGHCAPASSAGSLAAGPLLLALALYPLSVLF

[31] = molecular target: T6, Intestinal-type alkaline phosphatase; test: human IAP activators, dose response, biochemical, luminescent, uHTS hits, set 2 (AID 488817); assay type: functional;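 further: potency of activators that raise enzyme activity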

T2 sequence (P41143 whole entry): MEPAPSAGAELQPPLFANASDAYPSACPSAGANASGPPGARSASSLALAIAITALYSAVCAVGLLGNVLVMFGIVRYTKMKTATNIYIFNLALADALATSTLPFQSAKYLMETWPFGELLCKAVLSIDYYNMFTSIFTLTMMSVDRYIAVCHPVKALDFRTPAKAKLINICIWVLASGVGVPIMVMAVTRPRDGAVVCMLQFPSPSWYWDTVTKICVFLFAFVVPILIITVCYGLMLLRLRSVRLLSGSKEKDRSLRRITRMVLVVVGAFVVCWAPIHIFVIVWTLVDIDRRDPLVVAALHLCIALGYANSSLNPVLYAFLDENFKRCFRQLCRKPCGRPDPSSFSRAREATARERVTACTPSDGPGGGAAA
T3 sequence (P35372 whole entry): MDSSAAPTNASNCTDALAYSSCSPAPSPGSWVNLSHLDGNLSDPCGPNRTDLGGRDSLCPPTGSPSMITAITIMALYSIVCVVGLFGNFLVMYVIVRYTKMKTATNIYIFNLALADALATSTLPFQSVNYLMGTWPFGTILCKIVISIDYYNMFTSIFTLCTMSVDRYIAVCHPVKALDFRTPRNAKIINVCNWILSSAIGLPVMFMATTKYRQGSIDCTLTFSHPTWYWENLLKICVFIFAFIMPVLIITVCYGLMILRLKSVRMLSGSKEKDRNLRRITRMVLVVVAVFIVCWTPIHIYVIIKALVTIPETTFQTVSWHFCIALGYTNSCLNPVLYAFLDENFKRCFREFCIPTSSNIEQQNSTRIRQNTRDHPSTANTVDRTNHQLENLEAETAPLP
T1 sequence (P41145 whole entry): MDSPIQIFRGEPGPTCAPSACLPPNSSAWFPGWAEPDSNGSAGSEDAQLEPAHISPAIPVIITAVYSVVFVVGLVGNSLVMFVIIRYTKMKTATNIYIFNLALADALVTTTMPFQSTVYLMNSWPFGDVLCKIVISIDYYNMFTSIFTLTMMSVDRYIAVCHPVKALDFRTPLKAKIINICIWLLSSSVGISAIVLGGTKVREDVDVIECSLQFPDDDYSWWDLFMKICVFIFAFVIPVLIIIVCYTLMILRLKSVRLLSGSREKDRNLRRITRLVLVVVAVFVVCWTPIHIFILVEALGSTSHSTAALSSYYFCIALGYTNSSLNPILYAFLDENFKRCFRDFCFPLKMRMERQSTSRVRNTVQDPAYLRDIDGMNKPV
T6 sequence (P09923 whole entry): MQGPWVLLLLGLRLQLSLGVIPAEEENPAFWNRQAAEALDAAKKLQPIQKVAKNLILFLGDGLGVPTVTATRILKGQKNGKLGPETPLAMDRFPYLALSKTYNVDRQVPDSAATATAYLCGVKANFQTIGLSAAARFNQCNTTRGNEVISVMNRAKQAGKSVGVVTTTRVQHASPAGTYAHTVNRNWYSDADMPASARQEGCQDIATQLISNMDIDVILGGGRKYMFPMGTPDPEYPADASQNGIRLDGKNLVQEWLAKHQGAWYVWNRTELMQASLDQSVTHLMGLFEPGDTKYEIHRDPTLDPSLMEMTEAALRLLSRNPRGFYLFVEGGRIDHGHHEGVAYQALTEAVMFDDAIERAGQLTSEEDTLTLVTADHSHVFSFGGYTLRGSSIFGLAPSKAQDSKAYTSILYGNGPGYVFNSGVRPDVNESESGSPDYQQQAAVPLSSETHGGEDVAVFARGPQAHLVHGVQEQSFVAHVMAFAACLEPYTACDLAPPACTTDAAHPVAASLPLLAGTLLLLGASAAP
Sequence of UDP-galactopyranose mutase (P9WIQ1 whole entry, the tested form may be a part): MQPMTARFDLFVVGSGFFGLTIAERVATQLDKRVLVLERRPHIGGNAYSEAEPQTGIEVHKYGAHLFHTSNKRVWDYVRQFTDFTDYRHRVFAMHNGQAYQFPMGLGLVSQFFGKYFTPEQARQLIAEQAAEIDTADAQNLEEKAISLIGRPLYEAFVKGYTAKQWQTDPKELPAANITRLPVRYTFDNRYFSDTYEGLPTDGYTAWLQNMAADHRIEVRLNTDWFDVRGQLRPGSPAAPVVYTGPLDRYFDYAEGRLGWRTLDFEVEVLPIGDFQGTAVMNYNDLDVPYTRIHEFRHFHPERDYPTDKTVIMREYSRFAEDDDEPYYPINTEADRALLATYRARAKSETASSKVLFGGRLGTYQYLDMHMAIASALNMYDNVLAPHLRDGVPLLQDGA
Sequence of Intestinal-type alkaline phosphatase (Mus musculus, UniProt P24822) (P24822 whole entry): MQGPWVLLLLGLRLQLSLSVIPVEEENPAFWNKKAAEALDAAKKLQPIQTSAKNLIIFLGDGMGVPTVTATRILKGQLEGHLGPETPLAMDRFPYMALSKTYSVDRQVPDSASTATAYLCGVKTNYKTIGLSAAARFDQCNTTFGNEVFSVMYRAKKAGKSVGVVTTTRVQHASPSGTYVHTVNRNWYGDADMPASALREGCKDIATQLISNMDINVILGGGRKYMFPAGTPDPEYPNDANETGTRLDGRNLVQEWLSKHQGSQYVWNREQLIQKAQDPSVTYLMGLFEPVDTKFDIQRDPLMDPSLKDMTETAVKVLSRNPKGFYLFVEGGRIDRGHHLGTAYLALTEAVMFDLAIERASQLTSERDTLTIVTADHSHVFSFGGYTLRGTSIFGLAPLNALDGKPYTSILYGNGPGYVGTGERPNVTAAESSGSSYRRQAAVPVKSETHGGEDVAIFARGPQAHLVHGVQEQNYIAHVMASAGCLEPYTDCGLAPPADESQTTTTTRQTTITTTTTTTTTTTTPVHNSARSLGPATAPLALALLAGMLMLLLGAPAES
Sequence of Tumor necrosis factor (P01375 whole entry): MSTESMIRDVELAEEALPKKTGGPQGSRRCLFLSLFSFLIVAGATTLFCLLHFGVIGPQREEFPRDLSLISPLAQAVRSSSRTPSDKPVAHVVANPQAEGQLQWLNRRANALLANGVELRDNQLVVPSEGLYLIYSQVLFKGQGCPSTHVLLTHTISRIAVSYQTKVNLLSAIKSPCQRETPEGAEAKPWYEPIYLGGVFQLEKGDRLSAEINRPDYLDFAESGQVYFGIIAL
Sequence of Nucleotide-binding oligomerization domain-containing protein 1 (Q9Y239 whole entry, the tested form may be a part): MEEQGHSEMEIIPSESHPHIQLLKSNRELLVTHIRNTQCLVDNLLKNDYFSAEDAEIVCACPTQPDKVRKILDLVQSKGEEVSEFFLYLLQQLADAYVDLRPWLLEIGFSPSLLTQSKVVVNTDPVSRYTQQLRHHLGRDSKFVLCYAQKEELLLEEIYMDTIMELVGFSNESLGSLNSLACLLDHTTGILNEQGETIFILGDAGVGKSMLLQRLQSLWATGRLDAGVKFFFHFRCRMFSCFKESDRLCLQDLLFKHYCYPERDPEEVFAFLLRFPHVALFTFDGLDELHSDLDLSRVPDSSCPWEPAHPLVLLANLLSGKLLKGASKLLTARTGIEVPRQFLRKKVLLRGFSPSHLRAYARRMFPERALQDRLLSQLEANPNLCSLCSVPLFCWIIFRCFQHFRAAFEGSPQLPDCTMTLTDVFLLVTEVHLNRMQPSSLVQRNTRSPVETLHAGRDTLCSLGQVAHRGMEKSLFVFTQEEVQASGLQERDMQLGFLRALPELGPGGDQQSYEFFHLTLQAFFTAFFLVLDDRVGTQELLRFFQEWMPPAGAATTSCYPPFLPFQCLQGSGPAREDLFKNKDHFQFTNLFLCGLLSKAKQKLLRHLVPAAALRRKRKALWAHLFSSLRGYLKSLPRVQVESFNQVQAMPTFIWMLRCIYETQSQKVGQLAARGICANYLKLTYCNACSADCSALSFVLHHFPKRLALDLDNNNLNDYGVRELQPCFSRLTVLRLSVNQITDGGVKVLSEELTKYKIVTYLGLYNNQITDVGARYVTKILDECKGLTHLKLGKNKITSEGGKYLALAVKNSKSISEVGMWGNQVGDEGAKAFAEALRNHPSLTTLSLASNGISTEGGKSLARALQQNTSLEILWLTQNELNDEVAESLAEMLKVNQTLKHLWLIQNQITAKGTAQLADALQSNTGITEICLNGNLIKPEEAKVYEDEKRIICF
Sequence of Nucleotide-binding oligomerization domain-containing protein 2 (Q9HC29 whole entry, the tested form may be a part): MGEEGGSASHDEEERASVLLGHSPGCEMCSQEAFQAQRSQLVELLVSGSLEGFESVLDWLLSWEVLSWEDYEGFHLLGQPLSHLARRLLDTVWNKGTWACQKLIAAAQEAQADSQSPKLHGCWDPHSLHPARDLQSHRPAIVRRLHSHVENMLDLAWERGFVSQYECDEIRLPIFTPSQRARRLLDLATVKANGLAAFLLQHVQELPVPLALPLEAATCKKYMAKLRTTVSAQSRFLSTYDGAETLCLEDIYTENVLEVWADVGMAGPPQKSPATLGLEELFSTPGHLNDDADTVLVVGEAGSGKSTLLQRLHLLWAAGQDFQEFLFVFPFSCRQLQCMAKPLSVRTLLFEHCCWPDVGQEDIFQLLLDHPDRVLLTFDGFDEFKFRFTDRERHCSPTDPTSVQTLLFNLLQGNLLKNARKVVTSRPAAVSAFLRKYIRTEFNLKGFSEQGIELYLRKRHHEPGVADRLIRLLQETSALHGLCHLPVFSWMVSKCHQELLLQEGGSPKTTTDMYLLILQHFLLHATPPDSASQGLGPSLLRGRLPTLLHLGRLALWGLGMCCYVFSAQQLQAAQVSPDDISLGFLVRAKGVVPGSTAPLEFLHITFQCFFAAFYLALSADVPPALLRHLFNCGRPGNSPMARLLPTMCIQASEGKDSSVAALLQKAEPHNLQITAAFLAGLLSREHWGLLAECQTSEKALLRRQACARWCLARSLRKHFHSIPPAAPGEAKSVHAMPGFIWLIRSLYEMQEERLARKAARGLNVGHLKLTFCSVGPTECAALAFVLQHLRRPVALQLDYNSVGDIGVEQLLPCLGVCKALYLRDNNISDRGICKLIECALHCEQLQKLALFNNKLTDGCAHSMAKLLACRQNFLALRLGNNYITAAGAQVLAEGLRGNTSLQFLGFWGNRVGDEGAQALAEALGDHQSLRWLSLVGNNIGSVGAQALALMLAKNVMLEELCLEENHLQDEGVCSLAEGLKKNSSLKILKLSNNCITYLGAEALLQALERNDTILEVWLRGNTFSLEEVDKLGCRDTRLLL

Which IC50 [1] does the source give for `CCCN(CCC)CC(O)Cn1cc(/C=C/C(=O)c2cccs2)c2ccccc21` (stereo unspecified) here?
Its IC50 is 11.3 µM (active).

And the EC50 [2]?
Its EC50 is > 32 µM (inactive).

What about the EC50 [3] of the same compound?
The EC50 was > 32 µM (inactive).

And the IC50 [4]?
The IC50 was 4.14 µM.

And the IC50 [5]?
Its IC50 is > 32 µM (inactive).

What about the EC50 [6] of the same compound?
Its EC50 is > 31.5 µM (inactive).

With `CC(C)Cc1csc(NC(=O)c2ccc(F)cc2)c1C(=O)O` as the compound, how does the AC50 [7] read?
Its AC50 is 52.3 µM (active).

What about the EC50 [8] of the same compound?
The EC50 was 9.87 µM (active).

And the IC50 [9]?
The IC50 was > 20 µM (inactive).

What about the IC50 [10] of the same compound?
Its IC50 is 10.3 µM (active).

And the AC50 [11]?
The AC50 was 25.9 µM (active).

And the EC50 [12]?
The EC50 was > 53 µM (inactive).

And the IC50 [13]?
Its IC50 is 36.3 µM (active).

Which AC50 [14] does the source give for `COCCCNC(=O)Cn1cc(/C=C2\C(=O)NC(=O)N(c3ccccc3F)C2=O)c2ccccc21` here?
Its AC50 is 43.7 µM (active).

Which IC50 [15] does the source give for `O=C(/C=C/c1cccs1)Nc1sc2c(c1C(=O)O)CCCC2` here?
The IC50 was 6.42 µM (active).

And the IC50 [16]?
The IC50 was > 20 µM (inactive).

What about the IC50 [17] of the same compound?
The IC50 was > 20 µM (inactive).

And the IC50 [18]?
Its IC50 is > 20 µM (inactive).

What about the IC50 [19] of the same compound?
Its IC50 is > 20 µM (inactive).

And the EC50 [20]?
Its EC50 is > 20 µM (inactive).

What about the EC50 [21] of the same compound?
Its EC50 is 8.28 µM (active).

And the IC50 [22]?
Its IC50 is > 20 µM (inactive).

What about the IC50 [23] of the same compound?
The IC50 was > 20 µM (inactive).

Which EC50 [24] does the source give for `Clc1ccc(CSc2nnc(-c3ccccn3)n2Cc2ccco2)cc1Cl` here?
The EC50 was > 32 µM (inactive).

And the IC50 [25]?
The IC50 was > 32 µM (inactive).

What about the IC50 [26] of the same compound?
The IC50 was > 32 µM (inactive).

What about the EC50 [27] of the same compound?
Its EC50 is > 32 µM (inactive).

With `CSCCC(NS(=O)(=O)c1ccccc1F)C(=O)NNC(=O)c1csc(N2CCOCC2)n1` (stereo unspecified) as the compound, how does the EC50 [28] read?
The EC50 was 8.88 µM (active).

And the IC50 [29]?
Its IC50 is 70.1 µM (active).

What about the EC50 [30] of the same compound?
Its EC50 is 26.4 µM (active).

And the EC50 [31]?
Its EC50 is 10.6 µM (active).
